Patent US7173021B2, “Synthesis of temozolomide esters as potent anticancer pro-drugs for topical and transdermal applications in treatments of cancers” (Tianjin North Pharm Sci-Tech Co., Ltd., priority 2004, dated 2007)
Converted amounts (≈) assume the structure as drawn.

Columns and labels:
[1] = Solubility in 10% v/v propylene glycol; assay type: physicochemical; conditions: ambient conditions, stirred 5 hours; for solubility at 5 h: 10% v/v propylene glycol aqueous solution, aqueous with cosolvent or surfactant or cyclodextrin, thermodynamic from solid, read-out: Solubility, Concentration
Experimental: The potential of temozolomide esters used as topical and transdermal prodrugs is first proven through studies of their solubility. That is a decreased trend of solubility in an aqueous solution with increase of the length of the ester hydrocarbon alkyl chain of the temozolomide esters. It is clear the solubility constantly decreases from the methyl ester to the octyl ester, while temozolomide itself is 3.0 mg/ml similar to that of the methyl ester. […] Similarly to the esters, the solubility of the temozolomide amide products in the aqueous solution is considerably lower than that of temozolomide.
The solubility of temozolomide and the temozolomide esters was determined in 10% v/v propylene glycol by stirring an excess of the solid products at room temperature for 5 hours. The mixtures were then filtered, diluted with sample solvent and analysed using HPLC.

[2] = In vitro permeation, Franz diffusion cell, silicone membrane; assay type: in vitro ADME; conditions: 37° C., 8 h
Text: Jacketed Franz-type diffusion cells were used throughout the study and the barrier (12) (skin or silicone membrane) was mounted between the two chambers (14, 16) (2.8–3.4 cm^2 available surface area) with the dermal side in contact with the receiver solution (FIG. 2). The diffusion chambers (10) comprised a barrier of skin or silicone membrane (12) mounted between two chambers (14, 16). A cap (18) formed the donor compartment (14). The second receptor compartment (16) contained a receptor cell (20) with a stirring bar (22), sampling port (24) and cover (26). The stirring bar (22) was stirred by means of a magnet plate (28) having a rotating magnet. The receptor compartment comprised a water jacket (30) having a water inlet (32) and a water outlet (34).
Three types of materials were used in permeation studies. • 1. Silicone membrane (Silastic Medical Grade, 500-5, Dow Corning 0.005 in thick) was cut into circular sections (2 cm diameter) and washed with double distilled water prior to use. • 2. Full-thickness rat skin was obtained from Male Wistar rats aged 10 to 12 weeks and weighing 250 to 300 g, which were sacrificed by cervical dislocation, the abdomen shaved and the intact skin removed by dissection. Following removal of fat tissue, the skin was cut into circular pieces and used immediately. • 3. Samples of adult human epidermis were purchased from the Stephen Kirby Skin Bank (UK). The samples were from the leg, were stored at −18° C. and used within one week. Experiments
The membrane (as detailed above) was mounted on the diffusion cell (10), on which the surface area available for diffusion of each cell was about 2.8–3.4 cm^2. The cell cap (18) was placed on the membrane (12), and it was sealed with Parafilm® connecting the cell cap, membrane, and receptor cell. The capacity of each receptor cell was around 25–26 ml, which was filled with receptor solution and was completely in contact with the membrane sheet. During the course of experiment, the solution was continuously stirred by teflon-coated magnetic bar (22) placed in the cell (20). The temperature was maintained at 37° C. by a thermostatic water pump that circulated the water through the jacket (30) surrounding the cell body. The system was allowed to equilibrate under these conditions for half an hour. Finally, the prepared sample solution (2 ml) was added into the donor cap cell, and it was sealed with Parafilm® to minimize the evaporation of donor solution. 1 ml of receptor solution was removed every 30 minutes for 5 hours and then every 60 minutes for a further 3 hours. The volumes withdrawn were always replaced with equal volumes of fresh receptor solution to maintain constant volume. The concentration of each sample solution was determined by using HPLC.
For every sample, six determinations were performed on human and rat skin, and three determinations were carried out through artificial silicone membrane.
As stated above, after the removal of receptor solution, the receiver compartment was refilled with an identical volume of receptor fluid. This causes of the dilution of receptor solution leading to an under determination of the sample concentration. As a consequence, it was necessary to mathematically correct each successive sample concentrations, in the present invention, which was determined by applying the following equation:
[formula] where Ct is the actual current concentration of drug in the receptor phase at time t, Cmt is the apparent (i.e. measured) current concentration of drug in the receptor phase, Vs is the sample volume withdrawn for analysis, Vr is the volume of receptor solution, and ΣCm is the summed total of the previous measured concentrations.
Finally, the amount of drug penetrating the skin per unit area was calculated by dividing the obtained concentrations by the surface area available for diffusion cell and this value was different for each individual cell. […]

Compound	solubility at 5 h [1]	Permeation through synthetic silicone membrane ([2]; FIGS. 3-5)	further results
Cn1nnc2c(C(=O)NC(C)(C)C)ncn2c1=O [Temozolomide t-butyl amide, 3-Methyl-N-(tert-butyl)-4-oxoimidazo[5,1-d]-1,2,3,5-tetrazine-8-carboxamide]	1400 µg/mL (≈ 5.59 mM)		
CCC(C)NC(=O)c1ncn2c(=O)n(C)nnc12 (stereo not drawn) [Temozolomide sec-butyl amide]			Solubility, Concentration [1]: 1800 µg/mL (≈ 7.19 mM)
CC(C)NC(=O)c1ncn2c(=O)n(C)nnc12 [Temozolomide isopropyl amide, 3-Methyl-N-(iso-propyl)-4-oxoimidazo[5,1-d]-1,2,3,5-tetrazine-8-carboxamide]	2800 µg/mL (≈ 11.9 mM)		
CCCCCCCCOC(=O)c1ncn2c(=O)n(C)nnc12 [Temozolomide n-octyl ester, n-Octyl 3,4-dihydro-3-methyl-4-oxoimidazo[5,1-d]-1,2,3,5-tetrazine-8-carboxylate]	300 µg/mL (≈ 0.976 mM)		Permeation through synthetic silicone membrane ([2]; FIGS. 3-5, listed as n-octyl ester): passed through the membrane far more efficiently; Permeation through synthetic silicone membrane ([2]; FIGS. 3-5, listed as octyl ester): significantly less than the hexyl ester

Now from value to molecule, other results behind:

solubility at 5 h [1]	Compound	Permeation through synthetic silicone membrane ([2]; FIGS. 3-5)	further results
2500 µg/mL (≈ 11.2 mM)	CCOC(=O)c1ncn2c(=O)n(C)nnc12 [Temozolomide ethyl ester, Ethyl 3,4-dihydro-3-methyl-4-oxoimidazo[5,1-d]-1,2,3,5-tetrazine-8-carboxylate]	can not pass through the synthetic membrane easily	
2000 µg/mL (≈ 8.43 mM)	CCCOC(=O)c1ncn2c(=O)n(C)nnc12 [Temozolomide n-propyl ester, n-Propyl 3,4-dihydro-3-methyl-4-oxoimidazo[5,1-d]-1,2,3,5-tetrazine-8-carboxylate]	passed through the membrane far more efficiently	
1400 µg/mL (≈ 5.57 mM)	CCCCOC(=O)c1ncn2c(=O)n(C)nnc12 [Temozolomide n-butyl ester, n-Butyl 3,4-dihydro-3-methyl-4-oxoimidazo[5,1-d]-1,2,3,5-tetrazine-8-carboxylate]	passed through the membrane far more efficiently	
